In US20160368919A1, “NOVEL PYRIDINE PYRAZINONES AS BET-FAMILY BROMODOMAIN INHIBITORS” (Pfizer Inc., priority 2015, published 2016):
“Also recorded” adds a separate entry of the source.

Key:
BRD4 BD1 = biological target: T1, BRD4 BD1 (Homo sapiens, UniProt O60885); experiment: BRD4 BD1 Fluorescence Polarization (FP) competition binding assay; conditions: BRD4 BD1 40 nM, probe PFI-411FP 2 nM
T1 construct: His-tagged BRD4 BD1 (44-160); made in house
Method in brief: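 BRD4 BD1 (40 nM) preincubated 15 min at 20° C. with compound (120 to 0.0012 μM) in HEPES pH 7.4 with 0.08% BSA, then 2 nM PFI-411FP tracer added for 60 min. Fluorescence polarization read (ex 620/em 688 nm); IC50 from four-parameter fit, converted to Ki via Nikolovska-Coleska equation.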

[1] = tested on: c-MYC and MYB expression in MM1.S cells; experiment: Biomarker analysis in MM1.S cells (RT-PCR, Western blot); type: cell-based
Procedure: MM1.S cells (1,000,000 cells) were seeded in […] in 10 mL medium. On the following day cells were treated with indicated compounds for 0, 2, 4, 6, 8, 16, and 24 hours. Cells were collected, washed in PBS, and split for western blot and RNA analysis. For western blot, cells were lysed in RIPA buffer and 30 ug protein was loaded on a 4-12% bis-tris gel under denaturing conditions and transferred to nitrocellulose. Blots were probed with primary antibodies for c-MYC (Cell Signaling #9402) and GAPDH (Cell Signaling #2118) diluted at 1:1000 and then secondary antibodies anti-mouse 680 (LiCor) and anti-rabbit 800 (Licor) and imaged on a LiCor reader. For gene expression analysis, total RNA was prepared using Qiagen total RNA kit (Qiagen) and cDNA was prepared from 100 ng RNA (high capacity cDNA kit; Applied Biosystems). Relative gene expression was analyzed on an Applied Biosystem 7900 qPCR thermocycler using gene expression assays for MYC (Hs00153408_m1), MYB (Hs00920556_m1), and GAPDH (Hs02758991_g1). Relative gene expression is calculated relative to DMSO and normalized to GAPDH expression.

HCC2429 cells = experiment: NMC HCC2429 cell proliferation assay (CellTiter-Glo); type: cell-based; conditions: Homo sapiens; HCC2429, CTG at 96h
Procedure: NMC HCC2429 Cell Proliferation Assay • HCC2429 cells were plated into a 96-well plate (10,000 cells/well). Compounds or control vehicle (DMSO) were added at indicated concentrations. Compound-treated HCC2429 cells were analyzed for cell density at 96h using CellTiter-Glo® (CTG) reagent (Promega).

[2] = tested on: C4-2 (parental) cells, AR(+); experiment: CRPC cell proliferation assay (CellTiter-Glo), C4-2; type: cell-based; conditions: CTG at 96h
Procedure: (§1) Castrate-Resistant Prostate Cancer (CRPC) Cell Proliferation Assay • Cells were seeded into 96-well plates at 2,000-10,000 cells/well in 100 uL medium. Four AR(+) cell lines (LnCaP, C4-2 (parental), C4-2AR-WT and C4-2AR—F876L) and one AR(−) cell line (DU-145) were studied. Compound treated cells were analyzed for cell density at 96h, using CellTiter-Glo® (CTG) reagent (Promega).

C4-2AR-WT cells, AR(+) = experiment: CRPC cell proliferation assay (CellTiter-Glo), C4-2AR-WT; type: cell-based; conditions: CTG at 96h
Procedure: as §1

[3] = tested on: C4-2AR-F876L cells, AR(+); experiment: CRPC cell proliferation assay (CellTiter-Glo), C4-2AR-F876L; type: cell-based; conditions: CTG at 96h
Procedure: as §1

DU-145 cells, AR(−) = experiment: CRPC cell proliferation assay (CellTiter-Glo), DU-145; type: cell-based; conditions: CTG at 96h
Procedure: as §1

[4] = 0.5 uM, RT-PCR time-course 2 to 24 hours

CCC(=O)N(C)c1ccc2nc(NCCC(=O)O)c(=O)n([C@@H](CC)c3ccccc3)c2n1 [Example 10, N-{6-[methyl(propanoyl)amino]-3-oxo-4-[(1S)-1-phenylpropyl]-3,4-dihydropyrido[2,3-b]pyrazin-2-yl}-beta-alanine]
IC50 (BRD4 BD1): 62.2 nM
expression of c-MYC mRNA relative to GAPDH [1, 4]: strongly down-regulated; also recorded: down-regulated
relative expression of MYB mRNA [1, 4]: down-regulated
relative expression of c-MYC protein ([1]; Western blot, 2, 4, 6, 8, 16 and 24 hours): down-regulated
IC50 (HCC2429 cells): 47 nM
IC50 [2]: 500 nM
Max % Inh [2]: 87%
IC50 (C4-2AR-WT cells, AR(+)): 500 nM
Max % Inh (C4-2AR-WT cells, AR(+)): 85%
IC50 [3]: 560 nM
Max % Inh [3]: 85%
Max % Inh (DU-145 cells, AR(−)): 55%
IC50 (DU-145 cells, AR(−); Homo sapiens): 1880 nM
